Data as given in the NIST ThermoML archive (doi:10.1021/je400082c).
Numbers after ± are expanded uncertainties.

Conditions: Liquid

CCC(O)CO (centres undefined) [1,2-butanediol]
Conditions	vapor or sublimation pressure [kPa]
372.06 K	1.89 ± 0.08
382.61 K	3.33 ± 0.08
390.52 K	4.96 ± 0.09
395.55 K	6.36 ± 0.09
399.56 K	7.66 ± 0.09
402.61 K	8.81 ± 0.09
405.13 K	9.9 ± 0.09
405.42 K	10 ± 0.1
408.5 K	11.39 ± 0.09
413.34 K	14.09 ± 0.09
418.29 K	17.27 ± 0.1
421.49 K	19.63 ± 0.1
424.91 K	22.54 ± 0.1
427.57 K	25.06 ± 0.11
429.92 K	27.24 ± 0.11
432.76 K	30.39 ± 0.12
435.37 K	33.36 ± 0.12
438.52 K	37.3 ± 0.13
439.97 K	39.3 ± 0.13
441.78 K	41.9 ± 0.13
443.55 K	44.75 ± 0.14

OCCO [1,2-ethanediol]
Conditions	vapor or sublimation pressure [kPa]
386.15 K	3.92 ± 0.08
389.12 K	4.51 ± 0.08
389.95 K	4.78 ± 0.08
390.75 K	4.89 ± 0.08
395.25 K	6.08 ± 0.09
400.78 K	7.87 ± 0.09
402.15 K	8.37 ± 0.09
405.85 K	9.85 ± 0.09
406.09 K	10 ± 0.095
406.25 K	10.02 ± 0.09
409.3 K	11.42 ± 0.09
411.15 K	12.41 ± 0.09
411.85 K	12.85 ± 0.09
413.85 K	13.85 ± 0.09
416.45 K	15.37 ± 0.09

CC(O)CO (centres undefined) [1,2-propanediol]
Conditions	vapor or sublimation pressure [kPa]
398.23 K, Ebulliometric method (Recirculating still)	10 ± 0.095

CC(O)CCO (centres undefined) [1,3-butanediol]
Conditions	vapor or sublimation pressure [kPa]
387.75 K	2.43 ± 0.08
395.13 K	3.6 ± 0.08
402.05 K	5.03 ± 0.08
406.61 K	6.26 ± 0.09
411.11 K	7.72 ± 0.09
413.41 K	8.54 ± 0.09
416.91 K	10 ± 0.095
418.03 K	10.48 ± 0.09
420.85 K	11.87 ± 0.09
422.04 K	12.54 ± 0.09
425.8 K	14.63 ± 0.09
427.74 K	15.84 ± 0.09
429.75 K	17.09 ± 0.09
433.71 K	19.96 ± 0.09
436.29 K	22.24 ± 0.1
439.65 K	25.3 ± 0.1
442.45 K	28.15 ± 0.1
444.75 K	30.78 ± 0.1
447.01 K	33.36 ± 0.1
449.8 K	36.78 ± 0.11
451.7 K	39.45 ± 0.11
453.1 K	41.39 ± 0.11
